Source: patent US8461328B2, “Tricyclic heterocyclic compounds, compositions and methods of use thereof” (Genentech, Inc., priority 2010, dated 2013)
Read-outs that look alike come from different tables or passages of the source.

Assays:
Assay type in all cases: biochemical
[1] = target: T1, JAK1 (Homo sapiens, UniProt P23458); experiment: JAK1 inhibition (Table 4)
T1 construct: made in house; host or cells: SF9 insect cells (baculovirus)

[2] = target: T2, JAK2 (Homo sapiens, UniProt O60674); experiment: JAK2 inhibition (Table 4); conditions: read-out: JAK2 Ki
T2 construct: made in house; host or cells: SF9 insect cells (baculovirus)
T2 sequence (O60674 812-1132): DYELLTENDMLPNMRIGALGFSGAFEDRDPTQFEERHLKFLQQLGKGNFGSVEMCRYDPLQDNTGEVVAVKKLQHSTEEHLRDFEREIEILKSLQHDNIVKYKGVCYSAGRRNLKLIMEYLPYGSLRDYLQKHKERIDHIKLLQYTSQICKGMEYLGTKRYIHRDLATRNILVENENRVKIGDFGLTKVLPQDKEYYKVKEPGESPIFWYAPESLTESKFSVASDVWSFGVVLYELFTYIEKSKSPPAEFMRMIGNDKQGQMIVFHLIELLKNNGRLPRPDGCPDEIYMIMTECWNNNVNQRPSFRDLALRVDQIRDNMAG

[3] = target: T3, JAK3 (Homo sapiens, UniProt P52333); experiment: JAK3 inhibition (Table 4); conditions: read-out: JAK3 Ki
T3 construct: made in house; host or cells: SF9 insect cells (baculovirus)
T3 sequence (P52333 783-1124): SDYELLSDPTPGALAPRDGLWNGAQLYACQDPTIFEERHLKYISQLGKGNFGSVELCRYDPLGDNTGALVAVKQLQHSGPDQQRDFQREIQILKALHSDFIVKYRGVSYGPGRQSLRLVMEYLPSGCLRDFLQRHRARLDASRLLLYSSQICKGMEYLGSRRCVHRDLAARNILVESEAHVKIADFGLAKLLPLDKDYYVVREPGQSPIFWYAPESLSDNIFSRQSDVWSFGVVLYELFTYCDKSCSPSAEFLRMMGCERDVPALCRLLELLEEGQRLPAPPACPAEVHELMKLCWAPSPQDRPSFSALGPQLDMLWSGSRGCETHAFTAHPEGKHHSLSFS

[4] = target: T4, TYK2 (Homo sapiens, UniProt P29597); experiment: TYK2 inhibition (Table 4)
T4 construct: made in house; host or cells: SF9 insect cells (baculovirus)
T4 sequence (P29597 873-1187): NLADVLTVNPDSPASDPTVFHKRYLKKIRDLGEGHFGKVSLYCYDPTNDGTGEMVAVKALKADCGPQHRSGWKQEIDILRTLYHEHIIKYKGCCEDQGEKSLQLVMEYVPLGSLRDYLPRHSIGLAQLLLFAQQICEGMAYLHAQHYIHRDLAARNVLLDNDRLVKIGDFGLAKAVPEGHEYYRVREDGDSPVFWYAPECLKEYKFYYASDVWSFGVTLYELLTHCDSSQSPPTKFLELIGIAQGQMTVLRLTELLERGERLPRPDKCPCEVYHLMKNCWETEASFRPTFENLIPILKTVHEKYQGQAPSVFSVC

T1 sequence (P23458 852-1154): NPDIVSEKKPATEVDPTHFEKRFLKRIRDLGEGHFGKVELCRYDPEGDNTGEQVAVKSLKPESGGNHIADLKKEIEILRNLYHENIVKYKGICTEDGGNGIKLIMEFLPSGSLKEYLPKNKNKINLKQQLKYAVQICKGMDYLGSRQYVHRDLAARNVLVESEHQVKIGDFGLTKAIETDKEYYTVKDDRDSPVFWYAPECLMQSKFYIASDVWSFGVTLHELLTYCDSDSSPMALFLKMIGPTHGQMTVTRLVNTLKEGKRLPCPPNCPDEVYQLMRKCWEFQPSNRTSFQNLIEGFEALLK

Structure (SMILES)	Ki ([1]; read-out: JAK1 Ki)	Ki [2]	Ki [3]	Ki [4]	Ki ([1]; JAK1 Ki)
Cc1nc2cnc3[nH]ccc3c2n1[C@@H]1CCCN(C(=O)CC#N)C1 [Example 272]	0.5 nM	1.35 nM	3.14 nM	4.71 nM	–
Cc1nc2cnc3[nH]ccc3c2n1[C@H]1CC[C@H](N)CC1 [Example 273, 4-(2-Methyl-6H-1,3,5,6-tetraaza-as-indacen-1-yl)-cyclohexylamine]	5.29 nM	18.9 nM	19.2 nM	48.4 nM	–
CC(C)(C)OC(=O)N[C@H]1CC[C@H](n2nnc3cnc4[nH]ccc4c32)CC1 [Example 276, [4-(6H-1,2,3,5,6-Pentaaza-as-indacen-1-yl)-cyclohexyl]-carbamic acid tert-butyl ester]	12.1 nM	32.3 nM	378 nM	460 nM	–
c1cncc(CN2CCC(n3nnc4cnc5[nH]ccc5c43)CC2)c1 [Example 282, 1-(1-Pyridin-3-ylmethyl-piperidin4-yl)-1,6-dihydro-1,2,3,5,6-pentaaza-as-indacene]	7.53 nM	12.1 nM	48.1 nM	260 nM	–
Cc1nc2cnc3[nH]ccc3c2n1C1CCN(Cc2cccnc2)CC1 [Example 283, 2-Methyl-1-(1-pyridin-3-ylmethyl-piperidin-4-yl)-1,6-dihydro-1,3,5,6-tetraaza-as-indacene]	0.84 nM	1.93 nM	2.63 nM	50.2 nM	–
CN1CCC[C@H]1C(=O)N1CCC(n2nnc3cnc4[nH]ccc4c32)CC1 [Example 284, ((S)-1-Methyl-pyrrolidin-2-yl)-[4-(6H-1,2,3,5,6-pentaaza-as-indacen-1-yl)-piperidin-1-yl]-methanone]	92.5 nM	604 nM	2630 nM	3430 nM	–
FC(F)(F)c1nc2cnc3[nH]ccc3c2n1[C@@H]1CCCN(Cc2ccccc2)C1 [Example 287]	–	145 nM	822 nM	2050 nM	282 nM
N#Cc1nc2cnc3[nH]ccc3c2n1C1CCN(Cc2cccnc2)CC1 [Example 290, 1-(1-Pyridin-3-ylmethyl-piperidin-4-yl)-1,6-dihydro-1,3,5,6-tetraaza-as-indacene-2-carbonitrile]	3.94 nM	4.88 nM	6.27 nM	204 nM	–

Second part, led by results:

Ki ([1]; read-out: JAK1 Ki)	Ki [2]	Ki [3]	Ki [4]	Structure (SMILES)	Ki ([1]; JAK1 Ki)
34.3 nM	88.8 nM	39.3 nM	259 nM	N#CCCN1CCC(n2c(CC(=O)N3CC(F)(F)C3)nc3cnc4[nH]ccc4c32)CC1 [Example 274, 3-(4-{2-[2-(3,3-Difluoro-azetidin-1-yl)-2-oxo-ethyl]-6H-1,3,5,6-tetraaza-as-indacen-1-yl]-piperidin-1-yl}-propionitrile]	–
1.52 nM	5.19 nM	6.41 nM	54.4 nM	OCc1nc2cnc3[nH]ccc3c2n1C1CCN(Cc2cccnc2)CC1 [Example 278, [1-(1-Pyridin-3-ylmethyl-piperidin-4-yl)-1,6-dihydro-1,3,5,6-tetraaza-as-indacen-2-yl]-methanol]	–
7.49 nM	25.1 nM	16.3 nM	171 nM	CC(C)c1nc2cnc3[nH]ccc3c2n1C1CCN(CCC#N)CC1 [Example 281, 3-[4-(2-Isopropyl-6H-1,3,5,6-tetraaza-as-indacen-1-yl)-piperidin-1-yl]-propionitrile]	–
3.56 nM	47.8 nM	6.46 nM	442 nM	O=C(Cc1nc2cnc3[nH]ccc3c2n1C1CCN(Cc2cccnc2)CC1)N1CCC(F)(F)CC1 [Example 286, 1-(4,4-Difluoro-piperidin-yl)-2-[1-(1-pyridin-3-ylmethyl-piperidin-4-yl)-1,6-dihydro-1,3,5,6-tetraaza-as-indacen-2-yl]-ethanone]	–
1.21 nM	1.31 nM	14 nM	11.9 nM	N#CCCN1CCC(n2c(C#N)nc3cnc4[nH]ccc4c32)CC1 [Example 293, 1-[1-(2-Cyano-ethyl)-piperidin-4-yl]-1,6-dihydro-1,3,5,6-tetraaza-as-indacene-2-carbonitrile]	–
